Experimental data as given in article PMC2752989 (PLoS ONE, 2009).

What was measured:
[1] = tested on: C. parapsilosis ATCC 90018; format: cell-based, Candida parapsilosis; settings: n = 3
[2] = tested on: Candida parapsilosis ATCC 90018; format: cell-based; settings: pH 7.4
[3] = tested on: bacteria; settings: cited from earlier work
[4] = tested on: HaCaT keratinocytes

| Substance | antimicrobial activity in RDA at low pH versus normal pH [1] | antimicrobial activity in RDA with versus without Zn2+ [1] | antimicrobial activity (viable count) with Zn2+ [2] | antimicrobial activity (viable count) without Zn2+ [2] | antibacterial activity in physiological buffers and plasma [3] | cell permeabilization (LDH release) [4] |
| --- | --- | --- | --- | --- | --- | --- |
| AHHAHAAHHAHAAHHAHAAHHAHA [AHH24, previously described H-rich control peptide] | showed enhanced activity at low pH | significantly enhanced | dose-dependent killing | showed no antimicrobial activity | – | – |
| GHHPHGHHPHGHHPHGHHPH [GHH20, H-rich control peptide derived from histidine-rich glycoprotein] | showed enhanced activity at low pH | significantly enhanced | dose-dependent killing | showed no antimicrobial activity | – | – |
| GKRKKKGKGLGKKRDPCLRKYK [GKR22] | – | – | – | – | retain antibacterial activity in physiological buffers as well as in plasma | – |
| HKHGHGHGKHKNKGKKNGKH [HKH20, kininogen-derived antimicrobial peptide] | – | – | – | – | retain antibacterial activity in physiological buffers as well as in plasma | – |
| LL-37: classical human antimicrobial cathelicidin peptide, benchmark | – | – | – | – | – | less active |
